What was measured:
[1] = test system: Lactococcus lactis, Streptococcus thermophilus, and Lactobacillus casei/paracasei; assay: Minimal inhibitory concentrations (MIC) of bile acids and OCA, aerobic and anaerobic; assay type: cell-based; conditions: millimolar range; aerobic and anaerobic
Source text: FIGS. 58A-58B: Minimal inhibitory concentrations (MICs) of selected Gram-positive bacterial species in response treatment with two endogenous bile acids and OCA. […] N=3 per measurement. […] N=3 per measurement.
a (Begley et al., FEMS Microbiol Rev. 29, 625-651 (2005)), and conducted genomic analysis is consistent with the notion that specific Gram-positive taxa become proportionally more abundant during OCA administration due to enhanced proliferation. FXR-dependent inhibition of endogenous bile acid synthesis by OCA may reduce the growth inhibitory effects on Gram-positive bacterial species that are normally sensitive to bile acids. To determine if the three bacterial species with the greatest representation of pathways associated with OCA (FIG. 57A) are sensitive to bile acids, the species-specific minimal inhibitory concentrations (MIC) of the two most predominant bile acids in the human small intestine, glycochenodeoxycholic acid (GCDCA) and glycocholic acid (GCA) were determined (FIG. 58A). Since the environment of the small intestinal lumen may transition from an aerobic to anaerobic state along its length (He et al., Proceedings of the National Academy of Sciences of the United States of America, 96, 4586-4591 (1999)), MICs were determined under both aerobic and anaerobic conditions. […] Consistent with this notion, it has been shown that bile salt hydrolases (BSH), enzymes that are unique to bacteria resident in the mammalian gut where they can enhance bile acid tolerance (Begley et al., FEMS Microbiol Rev. 29, 625-651 (2005)), are missing from the genome of S. thermophilus, which is induced by OCA. It can be supported by showing that these species are sensitive to growth inhibition in vitro when exposed to physiologically-relevant concentrations of conjugated bile acids found in the small intestine. […] Since OCA is a bile acid analogue possibly capable of inhibiting bacterial growth, the MICs of OCA for the same bacterial species were determined (FIG. 58B). […] These findings support the notion that OCA treatment leads to the increased growth of bile acid sensitive bacterial taxa by suppressing endogenous bile acid synthesis.

[2] = test system: bacterial strains found in the human small intestine; assay: Inhibition of bacterial growth by bile acids, microbroth dilution, optical density at 630 nm; assay type: cell-based; conditions: aerobic or anaerobic
Method: The toxicity of several bile acids to various gut microbiome species was examined. Representative species were exposed to different bile acids at a range of concentrations under either aerobic or anaerobic condition, and the growth of the species at these concentrations was measured by determining the optical density of the culture.
Lactobacillus casei CP was purchased from Custom Probiotics Inc. (Glendale, Calif.) as L. casei Custom Probiotic Powder (strain confirmed by Sanger sequencing of the 16S gene). Pediococcus pentosaceus KE-99 was purchased from Probiohealth (Beverly Hills, Calif.) as KE-99 LACTO Tablet (strain confirmed by Sanger sequencing of the 16S gene). L. casei 393, Streptoccocus thermophilus LMD-9, Akkermansia muciniphila Muc, and Veillonella parvula Te3 were purchased from the American Type Culture Collection (ATCC, Manassas, Va.). Lactococcus lactis NZ9000 was purchased from BOCA Scientific (Boca Raton, Fla.). Escherichia coli Nissle was obtained from Dr. Mark Goulian (University of Pennsylvania, Philadelphia, Pa.).
L. casei, P. pentasaceus, and L. lactis were grown in de Man, Rogosa, and Sharpe (MRS) medium (Anaerobe Systems, Morgan Hill, Calif.); E. coli was grown in lysogeny broth (LB) medium (Fisher Scientific, USA); S. thermophilus and A. muciniphila were grown in brain heart infusion (BHI) medium (Fisher Scientific, USA and Anaerobe Systems, Morgan Hill, Calif.), and; V. parvula was grown in reinforced clostridial medium (Fisher Scientific, USA). Aerobic cultures were incubated at 37° C.; anaerobic cultures were incubated at 37° C. in an anaerobic glove box (Coy Laboratories, Grass Lake, Mich.).
Glycochenodeoxycholic, glycocholic, and taurocholic acids were purchased from Sigma Aldrich (St. Louis, Mo.). Obeticholic acid was provided by Intercept Pharmaceuticals, Inc. (New York, N.Y.).
Inhibition of bacterial growth by bile acids was determined by the microbroth dilution method. Plates were prepared with 100 uL of medium containing the appropriate concentrations of bile acid. Wells were inoculated with 1 uL of an overnight culture, covered, and incubated overnight (3 days for A. muciniphila and V. parvula, which are slow growing organisms). Growth was measured via optical density at 630 nm, and measurements were zeroed against wells containing the appropriate bile acid level with no bacteria. All tests were performed in triplicate. Data is expressed as the percent (%) reduction in growth, which was calculated against controls (i.e., no bile acids). The responses of representative species to different concentrations of bile acids are illustrated by the heat maps shown in FIGS. 53A-53D.

Structure (SMILES)	growth of all three species at physiologically relevant concentrations [1]	growth inhibitory effects on various strains of gram positive bacteria [2]
C[C@H](CCC(=O)NCC(=O)O)[C@H]1CC[C@H]2[C@@H]3[C@H](O)C[C@@H]4C[C@H](O)CC[C@]4(C)[C@H]3C[C@H](O)[C@]12C [GCA, glycocholic acid, reference compound]	significantly inhibited	differential growth inhibitory effects
CC(CCC(=O)NCC(=O)O)C1CCC2C3C(O)CC4CC(O)CCC4(C)C3CCC12C (centres unmarked) [GCDCA, glycochenodeoxycholic acid, reference compound]	significantly inhibited	differential growth inhibitory effects
C[C@H](CCC(=O)NCCS(=O)(=O)O)[C@H]1CC[C@H]2[C@@H]3[C@H](O)C[C@@H]4C[C@H](O)CC[C@]4(C)[C@H]3C[C@H](O)[C@]12C [TCA, taurocholic acid]	–	differential growth inhibitory effects

— patent US20200164005A1, “PHARMACEUTICAL COMPOSITIONS OF A BILE ACID DERIVATIVE AND MICROBIOME AND USES THEREOF” (Intercept Pharmaceuticals, Inc., priority 2017, published 2020)
